Laboratory results as given in patent US11697648B2, “Fused pyrimidine pyridinone compounds as JAK inhibitors” (THERAVANCE BIOPHARMA R&D IP, LLC, priority 2019, dated 2023).

Key:
JAK2 = JAK2 (Homo sapiens (Human), UniProt O60674); experiment: Biochemical JAK2 kinase assay (LanthaScreen)
Procedure, shortened: (§1)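 GST-JAK + GFP-STAT1 peptide, HEPES pH 7.5/MgCl2/EGTA/Brij-35 buffer; cpd preincubation 1 h RT; ATP start, 1 h RT; stop with 10 mM EDTA + 2 nM Tb-anti-pSTAT1; TR-FRET 520/495. 4-parameter IC50 → pKi (Cheng-Prusoff).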

Caco-2 cell monolayers = experiment: Caco-2 permeation assay; format: in vitro ADME; conditions: 5 μM, A-B direction, with Verapamil (25 μM)
Procedure, shortened: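 Passive A-to-B permeability with P-gp inhibited by verapamil (25 μM); compound at 5 μM, n=2. Both compartments sampled at t0 and t120 and quantified by LC-MS/MS, giving apparent permeability in cm/sec from flux, area and concentration.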

Tyk2 = Tyk2 (Homo sapiens (Human), UniProt P29597); experiment: Biochemical Tyk2 kinase assay (LanthaScreen)
Procedure, shortened: as §1

[1] = test system: IL-2 stimulated STAT5 phosphorylation in Tall-1 human T cell line (JAK3); experiment: Cellular JAK3 potency assay: inhibition of IL-2 stimulated pSTAT5 in Tall-1 T cells; format: cell-based; conditions: IL-2 stimulated pSTAT5, Tall-1 T cells
Procedure, shortened: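 AlphaLISA SureFire Ultra measures STAT5 Tyr694/699 phosphorylation in lysed Tall-1 human T cells. Cells were exposed to compound for 1 h at 37 °C before a 30 min IL-2 challenge (300 ng/ml final). Values are pIC50 means with standard deviation from signal-versus-concentration curves.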

JAK1 = JAK1 (Homo sapiens (Human), UniProt P23458); experiment: Biochemical JAK1 kinase assay (LanthaScreen)
Procedure, shortened: as §1

JAK3 = JAK3 (Homo sapiens (Human), UniProt P52333); experiment: Biochemical JAK3 kinase assay (LanthaScreen); conditions: for JAK3 (pKi)-JAK1 (pKi): selectivity JAK3 over JAK1, difference of pKi
Procedure, shortened: as §1

JAK3, sequence (P52333 whole entry): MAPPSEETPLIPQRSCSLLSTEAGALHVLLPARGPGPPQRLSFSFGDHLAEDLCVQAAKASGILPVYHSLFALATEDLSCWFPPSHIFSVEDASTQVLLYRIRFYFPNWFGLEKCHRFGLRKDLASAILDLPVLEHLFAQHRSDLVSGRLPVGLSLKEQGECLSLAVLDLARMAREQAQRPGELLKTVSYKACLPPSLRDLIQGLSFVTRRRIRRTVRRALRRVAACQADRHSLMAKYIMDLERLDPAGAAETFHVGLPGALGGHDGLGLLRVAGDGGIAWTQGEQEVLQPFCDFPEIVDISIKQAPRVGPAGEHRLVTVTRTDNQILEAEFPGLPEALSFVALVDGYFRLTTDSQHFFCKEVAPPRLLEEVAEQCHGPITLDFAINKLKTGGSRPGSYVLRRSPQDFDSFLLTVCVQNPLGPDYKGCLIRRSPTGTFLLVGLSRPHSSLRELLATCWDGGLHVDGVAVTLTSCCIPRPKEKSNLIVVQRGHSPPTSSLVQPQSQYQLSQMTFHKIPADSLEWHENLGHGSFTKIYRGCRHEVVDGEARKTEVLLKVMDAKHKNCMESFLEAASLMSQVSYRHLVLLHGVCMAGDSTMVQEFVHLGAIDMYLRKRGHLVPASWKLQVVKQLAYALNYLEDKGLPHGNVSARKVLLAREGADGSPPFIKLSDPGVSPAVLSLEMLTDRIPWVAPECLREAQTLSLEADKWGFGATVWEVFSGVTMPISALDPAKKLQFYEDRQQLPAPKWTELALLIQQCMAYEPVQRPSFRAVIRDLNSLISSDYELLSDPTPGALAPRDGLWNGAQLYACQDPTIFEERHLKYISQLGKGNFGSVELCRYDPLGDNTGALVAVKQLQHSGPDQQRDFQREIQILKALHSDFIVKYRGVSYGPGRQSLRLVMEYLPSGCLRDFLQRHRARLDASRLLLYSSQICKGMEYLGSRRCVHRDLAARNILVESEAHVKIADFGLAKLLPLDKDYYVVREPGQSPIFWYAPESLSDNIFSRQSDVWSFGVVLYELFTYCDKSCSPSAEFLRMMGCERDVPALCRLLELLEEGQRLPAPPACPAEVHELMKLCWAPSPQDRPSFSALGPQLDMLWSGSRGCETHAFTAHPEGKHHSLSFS
Tyk2, sequence (P29597 whole entry): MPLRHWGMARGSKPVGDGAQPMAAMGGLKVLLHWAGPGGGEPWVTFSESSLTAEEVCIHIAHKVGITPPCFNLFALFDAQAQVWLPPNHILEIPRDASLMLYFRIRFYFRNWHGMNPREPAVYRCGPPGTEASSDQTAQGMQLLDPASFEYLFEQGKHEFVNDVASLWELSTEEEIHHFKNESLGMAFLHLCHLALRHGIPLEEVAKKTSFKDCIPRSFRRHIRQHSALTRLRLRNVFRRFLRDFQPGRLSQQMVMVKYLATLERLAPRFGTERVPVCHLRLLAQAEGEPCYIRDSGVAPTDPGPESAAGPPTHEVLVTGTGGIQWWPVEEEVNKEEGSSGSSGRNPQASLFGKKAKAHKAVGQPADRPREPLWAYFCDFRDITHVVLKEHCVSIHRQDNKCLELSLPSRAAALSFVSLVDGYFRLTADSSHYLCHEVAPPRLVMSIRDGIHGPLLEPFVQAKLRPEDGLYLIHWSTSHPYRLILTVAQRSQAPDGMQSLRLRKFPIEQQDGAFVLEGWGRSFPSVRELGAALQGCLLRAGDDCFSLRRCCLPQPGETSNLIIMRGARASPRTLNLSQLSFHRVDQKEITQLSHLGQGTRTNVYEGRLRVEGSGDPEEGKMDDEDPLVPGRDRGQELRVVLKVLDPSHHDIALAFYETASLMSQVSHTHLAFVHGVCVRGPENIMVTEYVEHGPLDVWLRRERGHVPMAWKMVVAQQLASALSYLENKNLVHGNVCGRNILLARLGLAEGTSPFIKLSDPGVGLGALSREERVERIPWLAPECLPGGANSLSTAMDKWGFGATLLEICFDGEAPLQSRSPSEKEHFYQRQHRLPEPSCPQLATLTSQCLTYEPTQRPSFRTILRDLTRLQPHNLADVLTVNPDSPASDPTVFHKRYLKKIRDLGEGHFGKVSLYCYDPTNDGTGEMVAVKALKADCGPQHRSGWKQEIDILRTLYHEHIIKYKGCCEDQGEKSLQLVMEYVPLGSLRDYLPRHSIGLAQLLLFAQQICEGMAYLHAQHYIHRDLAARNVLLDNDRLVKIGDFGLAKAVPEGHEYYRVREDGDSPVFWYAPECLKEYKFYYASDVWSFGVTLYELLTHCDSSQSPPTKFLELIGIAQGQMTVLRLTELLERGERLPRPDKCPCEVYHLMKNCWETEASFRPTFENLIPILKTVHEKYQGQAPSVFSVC
JAK1, sequence (P23458 whole entry): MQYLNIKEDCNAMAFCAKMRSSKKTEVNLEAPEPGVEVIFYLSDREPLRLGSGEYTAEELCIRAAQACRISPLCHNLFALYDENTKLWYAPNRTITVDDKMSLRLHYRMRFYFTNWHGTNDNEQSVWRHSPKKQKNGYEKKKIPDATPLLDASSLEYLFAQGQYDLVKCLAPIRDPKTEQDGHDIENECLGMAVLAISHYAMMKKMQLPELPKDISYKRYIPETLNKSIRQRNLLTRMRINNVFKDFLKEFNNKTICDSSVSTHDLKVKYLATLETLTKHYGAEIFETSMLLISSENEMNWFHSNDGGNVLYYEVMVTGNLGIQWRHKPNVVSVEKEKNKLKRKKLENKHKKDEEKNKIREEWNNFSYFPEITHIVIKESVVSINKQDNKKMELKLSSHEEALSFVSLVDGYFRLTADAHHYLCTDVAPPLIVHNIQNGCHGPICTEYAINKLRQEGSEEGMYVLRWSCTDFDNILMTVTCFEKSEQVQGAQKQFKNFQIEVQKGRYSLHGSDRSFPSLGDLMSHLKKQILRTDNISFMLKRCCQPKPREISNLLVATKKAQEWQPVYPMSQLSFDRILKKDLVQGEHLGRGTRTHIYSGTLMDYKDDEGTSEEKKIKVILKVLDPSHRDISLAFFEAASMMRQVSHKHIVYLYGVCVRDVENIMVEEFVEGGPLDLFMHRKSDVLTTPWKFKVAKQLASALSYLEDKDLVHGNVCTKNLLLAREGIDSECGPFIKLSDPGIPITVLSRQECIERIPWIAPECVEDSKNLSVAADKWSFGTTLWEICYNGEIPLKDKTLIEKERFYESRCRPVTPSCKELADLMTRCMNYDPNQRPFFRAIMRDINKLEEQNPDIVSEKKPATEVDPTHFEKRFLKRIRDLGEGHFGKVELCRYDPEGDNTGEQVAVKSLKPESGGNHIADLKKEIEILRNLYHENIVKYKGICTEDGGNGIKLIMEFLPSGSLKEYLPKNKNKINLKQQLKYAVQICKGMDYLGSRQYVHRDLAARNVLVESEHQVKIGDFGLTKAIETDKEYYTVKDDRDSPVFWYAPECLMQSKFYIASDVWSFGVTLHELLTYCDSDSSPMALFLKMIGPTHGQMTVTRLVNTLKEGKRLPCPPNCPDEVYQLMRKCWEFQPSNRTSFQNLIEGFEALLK
JAK2, sequence (O60674 whole entry): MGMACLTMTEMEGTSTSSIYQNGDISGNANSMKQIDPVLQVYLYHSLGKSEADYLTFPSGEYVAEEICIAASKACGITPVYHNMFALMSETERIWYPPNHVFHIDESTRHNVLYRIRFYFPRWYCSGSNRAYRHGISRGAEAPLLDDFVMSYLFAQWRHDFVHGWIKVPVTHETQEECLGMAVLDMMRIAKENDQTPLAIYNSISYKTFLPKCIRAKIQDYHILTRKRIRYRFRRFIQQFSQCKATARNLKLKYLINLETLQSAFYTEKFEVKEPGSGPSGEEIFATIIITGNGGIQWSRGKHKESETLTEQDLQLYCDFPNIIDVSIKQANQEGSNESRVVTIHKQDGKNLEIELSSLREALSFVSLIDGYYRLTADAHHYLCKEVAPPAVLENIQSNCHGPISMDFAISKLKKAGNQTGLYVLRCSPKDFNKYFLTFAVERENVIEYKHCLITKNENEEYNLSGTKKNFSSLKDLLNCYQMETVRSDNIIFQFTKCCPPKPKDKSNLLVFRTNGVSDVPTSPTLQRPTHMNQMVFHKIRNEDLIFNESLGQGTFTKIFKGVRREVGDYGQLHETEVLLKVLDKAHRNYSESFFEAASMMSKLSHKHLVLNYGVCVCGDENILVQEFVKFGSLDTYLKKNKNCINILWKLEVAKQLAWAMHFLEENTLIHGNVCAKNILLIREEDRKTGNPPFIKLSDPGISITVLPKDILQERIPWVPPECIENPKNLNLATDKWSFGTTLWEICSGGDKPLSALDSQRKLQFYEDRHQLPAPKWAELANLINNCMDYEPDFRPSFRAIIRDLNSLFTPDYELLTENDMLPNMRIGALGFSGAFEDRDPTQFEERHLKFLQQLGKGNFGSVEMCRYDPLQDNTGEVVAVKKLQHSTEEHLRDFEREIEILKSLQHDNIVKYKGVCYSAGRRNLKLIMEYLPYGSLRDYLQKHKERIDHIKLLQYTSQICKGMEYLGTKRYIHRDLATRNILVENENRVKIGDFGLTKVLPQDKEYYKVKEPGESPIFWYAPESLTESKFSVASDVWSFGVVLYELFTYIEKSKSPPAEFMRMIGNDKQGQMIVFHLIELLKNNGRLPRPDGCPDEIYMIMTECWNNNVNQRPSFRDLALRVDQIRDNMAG

SMILES | JAK 2 (pKi) (JAK2) | Caco Kp (Caco-2 cell monolayers) | Tyk 2 (pKi) (Tyk2) | Tall-1 (pIC50) [1] | JAK 1 (pKi) (JAK1) | JAK 3 (pKi) (JAK3) | JAK3 (pKi)-JAK1 (pKi) (JAK3)
C=CC(=O)N1CC(CCn2c(=O)ccc3cnc(Nc4cccc(N5CCN(C(=O)OC)CC5)c4)nc32)C1 [Example 123] | E (E represents a pKi value of 7 or below (Ki of 100 nM or above)) | C (C represents a value between 10×10^−6 and 30×10^−6 cm/sec) | E (E represents a pKi value of 7 or below (Ki of 100 nM or above)) | B (B represents a pC50 value between 6.7 (included) and 7.5 (IC50 between 200 nM and 32 nM)) | E (E represents a pKi value of 7 or below (Ki of 100 nM or above)) | B (B represents pKi value between 9 and 10 (Ki between 1 nM and 0.1 nM)) | A (A represents a value of 3 or above)
C=CC(=O)N1CCN(CCn2c(=O)ccc3cnc(Nc4ccc(N5CCN(CCCOC)CC5)cc4)nc32)CC1 [Example 207] | E (E represents a pKi value of 7 or below (Ki of 100 nM or above)) | B (B represents a value between 5×10^−6 and 10×10^−6 cm/sec) | E (E represents a pKi value of 7 or below (Ki of 100 nM or above)) | B (B represents a pC50 value between 6.7 (included) and 7.5 (IC50 between 200 nM and 32 nM)) | E (E represents a pKi value of 7 or below (Ki of 100 nM or above)) | B (B represents pKi value between 9 and 10 (Ki between 1 nM and 0.1 nM)) | A (A represents a value of 3 or above)
C=CC(=O)N1CCN(CCn2c(=O)ccc3cnc(Nc4ccc(N5CCN(C(=O)C[S+]([O-])CC)CC5)cc4)nc32)[C@@H](CC)C1 (stereo partly shown) [Example 198] | E (E represents a pKi value of 7 or below (Ki of 100 nM or above)) | A (A represents a value below 5×10^−6 cm/sec) | E (E represents a pKi value of 7 or below (Ki of 100 nM or above)) | C (C represents a pIC50 value between 6 and 6.7 (IC50 between 1 μM and 200 nM)) | E (E represents a pKi value of 7 or below (Ki of 100 nM or above)) | B (B represents pKi value between 9 and 10 (Ki between 1 nM and 0.1 nM)) | A (A represents a value of 3 or above)
C=CC(=O)N1CC(CCn2c(=O)ccc3cnc(Nc4ccc5[nH]ncc5c4)nc32)C1 [Example 82] | E (E represents a pKi value of 7 or below (Ki of 100 nM or above)) | A (A represents a value below 5×10^−6 cm/sec) | E (E represents a pKi value of 7 or below (Ki of 100 nM or above)) | C (C represents a pIC50 value between 6 and 6.7 (IC50 between 1 μM and 200 nM)) | E (E represents a pKi value of 7 or below (Ki of 100 nM or above)) | B (B represents pKi value between 9 and 10 (Ki between 1 nM and 0.1 nM)) | A (A represents a value of 3 or above)
C=CC(=O)N1CC(CCn2c(=O)ccc3cnc(Nc4ccc(N5CCN(C(=O)SC(C)(C)C)CC5)cc4)nc32)C1 [Example 98] | E (E represents a pKi value of 7 or below (Ki of 100 nM or above)) | A (A represents a value below 5×10^−6 cm/sec) | E (E represents a pKi value of 7 or below (Ki of 100 nM or above)) | B (B represents a pC50 value between 6.7 (included) and 7.5 (IC50 between 200 nM and 32 nM)) | E (E represents a pKi value of 7 or below (Ki of 100 nM or above)) | A (A represents a pKi value≥10 (Ki≤0.1 nM)) | A (A represents a value of 3 or above)
C=CC(=O)N1CCN(CCn2c(=O)ccc3cnc(Nc4ccc(N5CCN(C(C)CC)CC5)cc4)nc32)CC1 (stereo not shown) [Example 206] | E (E represents a pKi value of 7 or below (Ki of 100 nM or above)) | C (C represents a value between 10×10^−6 and 30×10^−6 cm/sec) | E (E represents a pKi value of 7 or below (Ki of 100 nM or above)) | A (A represents a pIC50 value≥7.5 (IC50≤32 nM)) | E (E represents a pKi value of 7 or below (Ki of 100 nM or above)) | A (A represents a pKi value≥10 (Ki≤0.1 nM)) | A (A represents a value of 3 or above)
C=CC(=O)N1CC(CCn2c(=O)ccc3cnc(Nc4cnn(CCF)c4)nc32)C1 [Example 63] | E (E represents a pKi value of 7 or below (Ki of 100 nM or above)) | A (A represents a value below 5×10^−6 cm/sec) | E (E represents a pKi value of 7 or below (Ki of 100 nM or above)) | B (B represents a pC50 value between 6.7 (included) and 7.5 (IC50 between 200 nM and 32 nM)) | E (E represents a pKi value of 7 or below (Ki of 100 nM or above)) | B (B represents pKi value between 9 and 10 (Ki between 1 nM and 0.1 nM)) | A (A represents a value of 3 or above)
C=CC(=O)N1CC(CCn2c(=O)ccc3cnc(Nc4ccc(N5CCN(C)CC5)cn4)cc32)C1 [Example 14] | E (E represents a pKi value of 7 or below (Ki of 100 nM or above)) | A (A represents a value below 5×10^−6 cm/sec) | E (E represents a pKi value of 7 or below (Ki of 100 nM or above)) | A (A represents a pIC50 value≥7.5 (IC50≤32 nM)) | E (E represents a pKi value of 7 or below (Ki of 100 nM or above)) | B (B represents pKi value between 9 and 10 (Ki between 1 nM and 0.1 nM)) | A (A represents a value of 3 or above)
C=CC(=O)N1CCN(CCn2c(=O)ccc3cnc(Nc4cnn(CCF)c4)nc32)[C@@H](CC)C1 [Example 202] | E (E represents a pKi value of 7 or below (Ki of 100 nM or above)) | A (A represents a value below 5×10^−6 cm/sec) | E (E represents a pKi value of 7 or below (Ki of 100 nM or above)) | B (B represents a pC50 value between 6.7 (included) and 7.5 (IC50 between 200 nM and 32 nM)) | E (E represents a pKi value of 7 or below (Ki of 100 nM or above)) | B (B represents pKi value between 9 and 10 (Ki between 1 nM and 0.1 nM)) | A (A represents a value of 3 or above)
C=CC(=O)N1CCN(CCn2c(=O)ccc3cnc(Nc4ccc(N5CCN(C(=O)OC)CC5)cc4)nc32)[C@@H](CC)C1 [Example 190] | E (E represents a pKi value of 7 or below (Ki of 100 nM or above)) | C (C represents a value between 10×10^−6 and 30×10^−6 cm/sec) | E (E represents a pKi value of 7 or below (Ki of 100 nM or above)) | B (B represents a pC50 value between 6.7 (included) and 7.5 (IC50 between 200 nM and 32 nM)) | E (E represents a pKi value of 7 or below (Ki of 100 nM or above)) | A (A represents a pKi value≥10 (Ki≤0.1 nM)) | A (A represents a value of 3 or above)
C=CC(=O)N1CCN(CCn2c(=O)ccc3cnc(Nc4ccc(N5CCN(C(=O)OC)CC5)cc4)nc32)CC1 [Example 145] | E (E represents a pKi value of 7 or below (Ki of 100 nM or above)) | B (B represents a value between 5×10^−6 and 10×10^−6 cm/sec) | E (E represents a pKi value of 7 or below (Ki of 100 nM or above)) | B (B represents a pC50 value between 6.7 (included) and 7.5 (IC50 between 200 nM and 32 nM)) | E (E represents a pKi value of 7 or below (Ki of 100 nM or above)) | B (B represents pKi value between 9 and 10 (Ki between 1 nM and 0.1 nM)) | A (A represents a value of 3 or above)
C=CC(=O)N1CC(CCn2c(=O)ccc3cnc(Nc4cccc(CN5CCSCC5)c4)nc32)C1 [Example 85] | E (E represents a pKi value of 7 or below (Ki of 100 nM or above)) | C (C represents a value between 10×10^−6 and 30×10^−6 cm/sec) | E (E represents a pKi value of 7 or below (Ki of 100 nM or above)) | B (B represents a pC50 value between 6.7 (included) and 7.5 (IC50 between 200 nM and 32 nM)) | E (E represents a pKi value of 7 or below (Ki of 100 nM or above)) | A (A represents a pKi value≥10 (Ki≤0.1 nM)) | A (A represents a value of 3 or above)
C=CC(=O)N1CCN(CCn2c(=O)ccc3cnc(Nc4cnn(C)c4)nc32)[C@@H](CO)C1 [Example 131] | E (E represents a pKi value of 7 or below (Ki of 100 nM or above)) | A (A represents a value below 5×10^−6 cm/sec) | E (E represents a pKi value of 7 or below (Ki of 100 nM or above)) | C (C represents a pIC50 value between 6 and 6.7 (IC50 between 1 μM and 200 nM)) | E (E represents a pKi value of 7 or below (Ki of 100 nM or above)) | B (B represents pKi value between 9 and 10 (Ki between 1 nM and 0.1 nM)) | A (A represents a value of 3 or above)
